# Source: patent EP4763837A1, “PHOTOCHROMIC COMPOUND, CURABLE COMPOSITION, OPTICAL ARTICLE, LENS, AND EYEGLASSES” (TOKUYAMA CORPORATION, priority 2023, dated 2025)
# Where “and” joins values, the source holds several entries; their conditions need not be identical. Equal values may be shown once.
# Legend:
# Type in all cases: physicochemical
# [1] = Photochromic property of photochromic laminate made by coating method; settings: for Residual ratio: laminate by coating method, A96/A0 x 100 after 96 hours accelerated degradation, xenon weather meter X25
# Text: First, the photochromic compound obtained in Example 1, a photoinitiator, and a polymerizable compound were mixed to obtain a curable composition.
# The polymerizable compound was a combination of the following radical polymerizable monomers:
# Polyethylene glycol dimethacrylate (average molecular weight: 736): 42 parts by mass • Polyethylene glycol dimethacrylate (average molecular weight: 536): 12 parts by mass • Trimethylolpropane methacrylate: 38 parts by mass γ-Methacryloyloxypropyltrimethoxysilane: 2 parts by mass Glycidyl methacrylate: 1 part by mass.
# Note that, in the curable composition, the photochromic compound was added in an amount of 0.25 mmol taking a total amount of the radical polymerizable monomers as 100 g.
# Phenylbis(2,4,6-trimethylbenzoyl)phosphine oxide (photoinitiator: Omnirad 819): 0.3 parts by mass Ethylene bis(oxyethylene) bis[3-(5-tert-butyl-4-hydroxy-m-tolyl) propionate] (stabilizer, Irganox 245): 1 part by mass Bis(1,2,2,6,6-pentamethyl-4-piperidyl)sebacate: 3 parts by mass Leveling agent (L-7001) manufactured by DuPont Toray Specialty Materials K.K.: 0.1 parts by mass.
# Using this curable composition, a photochromic laminate was obtained by a lamination method including polymerization as follows.
# First, a thiourethane plastic lens with a center thickness of 2 mm and a refractive index of 1.60 was prepared as an optical substrate. Note that, the thiourethane plastic lens had been alkaline-etched in a 10% sodium hydroxide aqueous solution at 50°C for 5 minutes in advance, and then thoroughly washed with distilled water.
# A spin coater (1H-DX2, manufactured by MIKASA CO., LTD) was used to coat a surface of the above-mentioned plastic lens with a moisture-curing primer (product name: TR-SC-P, manufactured by Tokuyama Corporation) at a rotation speed of 70 rpm for 15 seconds, followed by 1000 rpm for 10 seconds. Then, about 2 g of the photochromic curable composition obtained above was spin-coated at a rotation speed of 60 rpm for 40 seconds, followed by 600 rpm for 10 to 20 seconds so as to achieve a photochromic coating layer with a thickness of 40 µm.
# The lens of which surface had been coated with the photochromic curable composition (photochromic coating layer) was irradiated with light for 90 seconds in a nitrogen gas atmosphere using a metal halide lamp with an output of 200 mW/cm^2 to cure the coating. The resultant was then further heated at 110°C for 1 hour to produce a photochromic laminate with a photochromic layer.
# Photochromic laminates were produced using the photochromic compounds obtained in Examples 2 to 20 in the same manner as in Example 21.
# Photochromic laminates were obtained using photochromic compounds represented by Formulae (A) to (D) below in the same manner as in Example 21. [drawing 89] [drawing 90] [drawing 91] [drawing 92] [drawing 93]
# The resulting photochromic laminates were evaluated by the below-mentioned methods. • (1) Photochromic property • [1] Maximum absorption wavelength (λmax): This is the maximum absorption wavelength after color development determined by a spectrophotometer manufactured by Otsuka Electronics Co., Ltd. (instantaneous multichannel photo detector MCPD3000) and was used as an index of a color tone upon color development. • [2] Color developing density at 23°C (A23): This is a difference between an absorbance {ε(240)} after irradiation with light at 23°C for 240 seconds and an absorbance ε(0) when not irradiated with light at the maximum absorption wavelength and was used as an index of a color developing density. The higher this value is, the better a photochromic property is. • [3] Color fading half-life at 23°C [τ1/2 (sec).)]: This is a period of time taken by an absorbance at the maximum absorption wavelength of a sample to decrease to 1/2 of {ε(240)-ε(0)} when irradiation is stopped after irradiation with light at 23°C for 240 seconds, and was used as an index of a color fading rate. The shorter this period of time is, the faster the color fading rate is. • [4] […]
# [2] = Photochromic property of photochromic cured product made by kneading method; settings: for Residual ratio: A96/A0 x 100 after 96 hours accelerated degradation, xenon weather meter X25; for Color developing density at 23°C: absorbance difference after 240 seconds irradiation at the maximum absorption wavelength of the same line
# Description: (§1) The resulting photochromic laminates were evaluated by the below-mentioned methods. • (1) Photochromic property • [1] Maximum absorption wavelength (λmax): This is the maximum absorption wavelength after color development determined by a spectrophotometer manufactured by Otsuka Electronics Co., Ltd. (instantaneous multichannel photo detector MCPD3000) and was used as an index of a color tone upon color development. • [2] Color developing density at 23°C (A23): This is a difference between an absorbance {ε(240)} after irradiation with light at 23°C for 240 seconds and an absorbance ε(0) when not irradiated with light at the maximum absorption wavelength and was used as an index of a color developing density. The higher this value is, the better a photochromic property is. • [3] Color fading half-life at 23°C [τ1/2 (sec).)]: This is a period of time taken by an absorbance at the maximum absorption wavelength of a sample to decrease to 1/2 of {ε(240)-ε(0)} when irradiation is stopped after irradiation with light at 23°C for 240 seconds, and was used as an index of a color fading rate. The shorter this period of time is, the faster the color fading rate is. • [4] Residual ratio (A96/A0 x 100): The resulting photochromic plastic lens was subjected to accelerated degradation for 96 hours using a xenon weather meter X25 manufactured by Suga Test Instruments Co., Ltd. Color developing densities were then evaluated before and after a test, and a color developing density before the test (A0) and a color developing density after the test (A96) were measured. A ratio (A96/A0) was determined as a residual ratio and was used as an index of color development durability. The higher the residual ratio is, the more durable the color development is.
# First, the photochromic compound obtained in Example 1, an additive, and a polymerizable compound were mixed to obtain a curable composition. The polymerizable compound was a combination of the following polymerizable monomers: • · 1,3-Bis(isocyanatomethyl)cyclohexane: 36.7 parts by mass • · Pentaerythritol tetrakis(3-mercaptopropionate): 39.4 parts by mass • · Polyoxyethylene polyoxypropylene lauryl ether (WONDERSURF 140 manufactured by AOKI OIL INDUSTRIAL Co., Ltd.): 17.4 parts by mass • · 1-Decanethiol: 2.8 parts by mass • · RX-1 prepared by the method described in Patent Document 14: 3.8 parts by mass
# Note that, in the curable composition, the photochromic compound was added in an amount of 0.106 mmol taking a total amount of the polymerizable monomers as 100 g.
# The following additives were used: • · Dimethyltin dichloride: 0.05 parts by mass • · Irganox 245: 0.1 parts by mass • · 2-Ethylhexyl […]: 0.6 parts by mass
# After the thus-prepared curable composition was thoroughly defoamed, it was poured into a glass mold with a gap of 1 mm and polymerized by casting polymerization. […] After the polymerization, the resulting cured product was removed from the glass mold to obtain a photochromic cured product with a thickness of 1 mm. The resulting photochromic cured product was evaluated in the same manner as for Example 23.
# Photochromic cured products were produced using the photochromic compounds shown in Table 4 in the same manner as in Example 50.
# [3] = Solubility of photochromic compound in polymerizable compounds; design: key: 1: No haze is seen when checked under transmission of light, and the sample is completely dissolved.; 2: A very thin haze is seen to the extent that it can be seen under transmission of light.; 3: A thin haze that can be seen under transmission of light is seen.; 4: A haze can be seen even without transmission of light; settings: 35 µmol/g in radical polymerizable compound composition of Example 21, 65 to 70°C; for Dissolution for 15 min / Dissolution for 30 min / Dissolution for 45 min: stirring and ultrasonic irradiation; for Dissolution for 1 hour: head reads 60 min in Tables 8 to 14
# Description: The photochromic compounds according to Examples and Comparative examples shown in Table 5 were evaluated for solubility in polymerizable compounds.
# Specifically, a sample was prepared by adding each of the photochromic compounds to the composition, which consisted of a radical polymerizable compound, among the curable compositions used in Example 21.
# Note that, this test was performed using "YOKAI-KUN USS-1" manufactured by NIHONSEIKI KAISHA LTD. under the following conditions: • Dissolution temperature: 65 to 70°C • Stirring condition: Stirring dial of 5. Ultrasonic irradiation condition: Irradiation interval of 3 sec.
# Dissolution was checked every 15 minutes up to 1 hour later, the sample was visually checked by transmitting light through the sample, and a degree of dissolution was evaluated according to the following four evaluation criteria.
# • 1: No haze is seen when checked under transmission of light, and the sample is completely dissolved. • 2: A very thin haze is seen to the extent that it can be seen under transmission of light. • 3: A thin haze that can be seen under transmission of light is seen. • 4: A haze can be seen even without transmission of light.
# A shorter time required for the evaluation result to be 1 means higher solubility.
# [4] = Photochromic property of binder sheet (photochromic layer made by binder method); settings: for Residual ratio: A96/A0 x 100 after 96 hours accelerated degradation, xenon weather meter X25; for Color developing density at 23°C: absorbance difference after 240 seconds irradiation at the maximum absorption wavelength of the same line
# Description: as §1
# A binder sheet was produced as follows. The binder sheet was made by laminating a first optical sheet, a first adhesive layer, a photochromic layer, a second adhesive layer, and a second optical sheet in this order. A polycarbonate sheet with a thickness of 400 µm was used as the first optical sheet and the second optical sheet.
# A 2 L four-necked flask equipped with a stirring blade, a condense tube, a thermometer, and a nitrogen gas inlet tube was charged with 315 parts by mass of polycarbonate diol with a number average molecular weight of 1000, 100 parts by mass of isophorone diisocyanate, and 72 parts by mass of toluene and reacted under a nitrogen atmosphere at 100°C for 7 hours. Thus, a urethane prepolymer with a terminal isocyanate group was synthesized. After the reaction of the above-mentioned urethane prepolymer was completed, the resulting reaction liquid was cooled to about 0°C and dissolved in 205 parts by mass of tertiary-butyl alcohol and 382 parts by mass of diethyl ketone, and then a temperature of the resulting liquid was kept at 0°C. Next, a mixed solution of 21.3 parts by mass of bis-(4-aminocyclohexyl)methane serving as a chain extender and 20 parts by mass of diethyl ketone was added dropwise thereto within 30 minutes and reacted at 0°C for 1 hour. Then, 8.1 parts by mass of 1,2,2,6,6-pentamethyl-4-aminopiperidine was added dropwise thereto and reacted at 0°C for 1 hour to obtain a solution of a terminal non-reactive urethane urea resin in diethylketone.
# One hundred parts by mass of the resulting solution of a terminal non-reactive urethane urea resin, 6.3 parts by mass of Example 1 (a photochromic compound represented by Formula (1-7), an isomer mixture of 4,4'-methylenebis(cyclohexylisocyanate) (polyisocyanate compound)), 0.4 parts by mass of ethylenebis(oxyethylene) bis[3-(5-tert-butyl-4-hydroxy-m-tolyl) propionate] serving as an antioxidant, and 0.06 parts by mass of L-7001 manufactured by DuPont Toray Specialty Materials K.K. serving as a surfactant were added and stirred and mixed at room temperature to obtain a composition for forming a photochromic layer. […]
Compound,Color fading half-life at 23°C [1] [min],Residual ratio [2],Color developing density at 23°C [2],Dissolution for 15 min [3],Dissolution for 30 min [3],Dissolution for 45 min [3],Dissolution for 1 hour [3],Residual ratio [1],Residual ratio [4],Color developing density at 23°C [4]
CCCCC1(CCC)c2cc(C)ccc2-c2c1c1c(c3cc(OC)c(-c4ccc(N5CCOCC5)cc4)cc23)OC(c2ccc(OC)cc2)(c2ccc(N3CCOCC3)cc2)C=C1 (centres unmarked) [Formula (10-1)],1.42,70% and 69%,1.10 - and 1.07 -,3,2,1,1,,,
CCCCCCC1(CC)c2cc(-c3ccc(OC(C)C)cc3)ccc2-c2c1c1c(c3cc(OC)c(-c4ccc(OC(C)C)cc4)cc23)OC(c2ccc(OC)cc2)(c2ccc(OCCC)cc2)C=C1 (centres unmarked) [Formula (11-1)],,,,,,,,69% 69%,92% and 91%,1.21 - and 1.03 -
CCCCCC1(CCC)c2cc(N(c3ccccc3)c3ccccc3)ccc2-c2c1c1c(c3cc(OC)ccc23)OC(c2ccc(OC)cc2)(c2ccc(OC)cc2)C=C1 (centres unmarked) [Formula (8-3)],1.67,72% and 71%,1.07 - and 0.96 -,,,,,,,
CCC1(C)c2ccccc2-c2c1c1c(c3cc(OC)c(-c4ccc(OC)cc4OC)cc23)OC(c2ccc(OC)cc2)(c2ccc(N(C)c3ccccc3)cc2)C=C1 (centres unmarked) [Formula (13-2)],,72% and 71%,0.75 - and 1.05 -,,,,,63%,82% and 83%,0.74 - and 1.05 -
CCCCC1(CC)c2cc(-c3ccc(C(C)(C)C)cc3)ccc2-c2c1c1c(c3cc(OC)c(N4CCCCC4)cc23)OC(c2ccc(OC)cc2)(c2ccc(OC)cc2)C=C1 (centres unmarked) [Formula (17-2)],,58% and 59%,,,,,,,68% and 70%,1.68 - and 0.84 -
CCCC1(C)c2cc(C)ccc2-c2c1c1c(c3cc(C)ccc23)OC(c2ccc(C)cc2)(c2ccc(OC)cc2)C=C1 (centres unmarked) [Formula (1-5)],2.28,71%,0.66 - and 1.10 -,,,,,62%,82%,0.65 - and 1.11 -
CCCCCCC1(CC)c2ccccc2-c2c1c1c(c3cc(OC)ccc23)OC(c2ccc(C)cc2)(c2ccc(N(C)c3ccccc3)cc2)C=C1 (centres unmarked) [Formula (7-4)],,67% and 66%,0.63 - and 1.13 -,,,,,60%,,
CCCCCC1(CC)c2cc(OC(F)(F)F)ccc2-c2c1c1c(c3cc(OC)ccc23)OC(c2ccc(OC)cc2)(c2ccc(OC)cc2)C=C1 (centres unmarked) [Formula (15-1)],,,,3,2,1,1,,90% and 91%,0.61 - and 0.73 -
CCCCC1(C)c2cc(-c3ccc(C)cc3)ccc2-c2c1c1c(c3cc(OC)c(OC)cc23)OC(c2ccc(OC)cc2)(c2ccc(OC)cc2)C=C1 (centres unmarked) [Formula (5-6)],,,,,,,,,80% and 81%,1.33 - and 0.84 -
